Data: patent US20210145830A1, “MATERIALS AND METHODS FOR TREATING CANCER” (Mayo Foundation for Medical Education and Research, priority 2018, published 2021)

What was measured:
[1] = test system: CART19 cells; assay: Th2/Th1 T cell subtype analysis during CART19 expansion; format: cell-based; settings: irradiated JeKo-1; TP0903 10-30 nM; day 3
Method: FIG. 22A-C. In vitro experiment for the combination of CART19 and TP0903. A. CART19 were cocultured at different effector-to-target ratio (E:T) with luciferase-positive JeKo-1. At 48 hours, cell killing was assessed by luminescence. […] The means and SEM are shown (**, p<0.005, *, p<0.05, one-way ANOVA analysis). n.s., not statistically significant. B. CART19 degranulation assay and cytokine production in the presence of TP0903. CART19 were cocultured with JeKo-1 for 4 hours in the presence of TP0903 doses of TP0903 (10-65 nM). […] C. Th2/Th1 T cell subtype analysis during CART19 expansion in the presence pf TP0903. CART19 cells were stimulated with lethally irradiated (120 Gy) JeKo-1 cell lines in the presence of increasing doses of TP0903 (10-30 nM). At the day 3, Th1 and Th2 cells were defined using CD4, CCR6, CCR4 and CXCR3 expression. […] The means and SEM are shown (*, p<0.05, one-way ANOVA analysis). n.s., not statistically significant.

[2] = test system: CART19 and UTDs; assay: Ex vivo T cell expansion and CART generation with TP0903; format: cell-based; settings: low dose TP0903 during ex vivo manufacture
Text: FIG. 14 contains graphs showing CART19 or untransduced T cell expansion with or without varied concentrations of TP0903. Low dose TP0903 enhanced the expansion of CART19 and UTDs during ex vivo manufacture of CARTs.
The murine anti-CD19 chimeric antigen receptor (single chain variable fragment derived from clone FMC63, CD8 hinge, 4-1BB costimulatory domain and CD3 zeta signaling domain) was generated de novo and cloned into a third generation lentivirus. Normal donor T cells were […] selected using negative selection Kit (Stem Cell), and expanded in vitro using anti-CD3/CD28 Dynabeads (Invitrogen, Life Technologies, Grand Island, N.Y., USA, added on the first day of culture). T cells were transduced with lentiviral supernatant one day following stimulation at a multiplicity of infection (MOI) of 3. The anti-CD3/CD28 Dynabeads were removed on day 6 and T cells were grown in T cell media (X-vivo 15 media, human serum 5%, penicillin, streptomycin and glutamax). CART cells were then cryopreserved on day 8 for future experiments. Prior to all experiments, T cells were thawed and rested overnight at 37° C.
CART cells were generated with increasing doses of TP0903. T cells were isolated (negative selection, STEM CELL kit) and stimulated with CD3/CD28 beads on day 0. On day 1, T cells were transduced with CAR19 lentivirus at MOI of 3. […]

[3] = test system: p-LCK and GATA-3 in naïve T cells; assay: Western blot of p-LCK and GATA-3 in naïve T cells; format: cell-based
Method: FIG. 21A-E. TP0903 modulates naïve T cells function upon stimulation of PMA/Ionomycin in vitro. A. Naïve T cell proliferation assay in the presence of TP0903. Naïve T cells were stimulated with 5 ng/ml of PMA and 0.1 μg/ml of Ionomycin in the absence or in the increasing dose of TP0903 (10-65 nM) for 3 days. […] B. At the end of the expansion on day 3, T cells were stained with inhibitory receptors. […] C. Naïve T cell degranulation assay and cytokine production in the presence of TP0903. Naïve T cells were stimulated with 50 ng/ml of PMA and 1 μg/ml of Ionomycin for 4 hours in the presence of increasing doses of TP0903 (10-65 nM). […] D. Western blot analysis of p-LCK and GATA-3 inhibition by TP0903 in naïve T cells. Naïve T cells were stimulated with 5 ng/ml of PMA and 0.1 ug/ml of Ionomycin in the absence (DMSO) or in the increasing dose of TP0903 (10-65 nM) for 24 hours. […] was used as loading control. E. TP0903 specifically reduces regulatory T cells (Treg). Effector T cells (Teff) were isolated by negative selection using RoboSep™ Human T Cell Isolation Kit (Stemcell Technologies). Tregs were isolated by negative selection using the human CD4^+CD127^lowCD25^+ Treg isolation kit (Stemcell Technologies). Teff and Treg were stimulated with anti-CD3/CD28 beads and 400 U/ml of IL-2. At day 5, total T cells were evaluated via CountBright quantification.

[4] = test system: regulatory T cells (Treg); assay: Regulatory T cell expansion (anti-CD3/CD28 beads, IL-2); format: cell-based, human
Method: FIGS. 19A-F. A. Inhibitory receptors expression in naïve T cells after TCR activation with CD3 stimulation in the increasing dose of TP0903. Naïve T cells were incubated with anti CD3/CD28 beads at a 1 to 3 ratio in the presence of TP0903. At day 3, T cells were stained with PD-1, TIM-3, LAG-3, and ICOS. […] Teff cells were isolated by negative selection using Human T Cell Isolation Kit. Tregs were isolated by negative selection using the human CD4^+CD127^lowCD25^+ Treg isolation kit. Teff and Treg were stimulated with anti CD3/CD28 beads and 400 U/ml of IL-2. At day 5, total T cells were evaluated via CountBright quantification. C. CART19 cytokine assay in the presence TP0903. UTDs or CART19 were incubated with Jeko in the presence of TP-0903 at a 1 to 1 ratio. Supernatant was harvested and analyzed by 32-plex Luminex array after 3 days. D. Inhibitory receptors expression in CART19 cells in the presence TP0903. UTDs or CART19 were incubated with Jeko at a 1 to 1 E/T ratio in the presence of TP0903. At day 5, T cells were stained with PD-1 (left), LAG-3 (right), and TIM-3. […] Cell killing was assessed by luminescence at 24 hours. […]
FIG. 21A-E. TP0903 modulates naïve T cells function upon stimulation of PMA/Ionomycin in vitro. […] At day 5, total T cells were evaluated via CountBright quantification.

[5] = PMA/Ionomycin, 24 hours, highest dose (65 nM)

## CN1CCN(Cc2ccc(Nc3ncc(Cl)c(Nc4ccccc4S(=O)(=O)N(C)C)n3)cc2)CC1 [TP0903]
[1]
  Th1/Th2 phenotype (CD4, CCR6, CCR4, CXCR3): major shift toward Th1 phenotype
[2]
  T cell expansion ex vivo and CART cell generation (CART19 and UTDs): enhanced
[3]; [5]
  GATA-3: modest inhibition
  phosphorylation of LCK: modest inhibition
[3]; T cell lysates, low dose TP0903
  LCK: inhibition
[4]; anti-CD3/CD28 beads + 400 U/ml IL-2, day 5
  Treg expansion: specifically reduced
[4]; treated with TP0903 for 3 days
  Treg versus effector T cells: preferential reduction
